From patent US11498903B2 (BRISTOL-MYERS SQUIBB COMPANY, priority 2017, dated 2022) come the findings set out here.

The term pEC50 denotes the negative decadic logarithm of the EC50, by convention in mol/L.

pEC50: −log10 of the molar value. Where two headings read alike, the source gives them in different places.

The experiment concerns the target T1, human APJ receptor (Homo sapiens, UniProt P35414).
T1 construct: expressed in transfected cells
T1 sequence (P35414 1-380): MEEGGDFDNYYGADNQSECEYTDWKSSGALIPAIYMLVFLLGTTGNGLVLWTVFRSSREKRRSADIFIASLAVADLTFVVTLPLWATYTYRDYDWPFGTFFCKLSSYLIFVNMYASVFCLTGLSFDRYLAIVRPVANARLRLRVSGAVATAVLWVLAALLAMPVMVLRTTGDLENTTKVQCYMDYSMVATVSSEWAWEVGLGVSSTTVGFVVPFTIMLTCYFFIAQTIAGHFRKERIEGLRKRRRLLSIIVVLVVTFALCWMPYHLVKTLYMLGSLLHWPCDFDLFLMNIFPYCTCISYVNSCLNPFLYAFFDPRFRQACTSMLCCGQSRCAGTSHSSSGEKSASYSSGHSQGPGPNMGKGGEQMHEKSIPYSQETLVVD
As to the kind of experiment: Intracellular cAMP accumulation assay (APJ hcAMP, HTRF). As to conditions: HEK293 cells stably expressing human APJ receptor. In kind it is cell-based. Summed up:
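Inhibition of 2 μM forskolin-driven cAMP ([…] present) measured by HTRF in 5,000 HEK293 cells/well stably expressing human APJ, 30 min, room temperature. EC50 came from a variable-slope sigmoidal fit; Ymax was relative to (Pyr1)apelin-13 set at 100%.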
(In general: cAMP levels reflect the balance of adenylyl cyclase and phosphodiesterase activity.)

Consider “(S)-2′-chloro-6′-(5- chloro-6-methyl-1H- 1,3-benzodiazol-2- yl)-4-{[(1R)-1- phenylbutyl] carbamoyl}- [1,1′-biphenyl]-2- carboxylic acid [Example 91]”, for which the negative logarithm of the EC50 (pEC50) reads like this: (Table 1, inhibition of forskolin-mediated cAMP production, read-out: APJ hcAMP EC50) > 8.00; (Table 3, read-out: APJ cAMP Human EC50) > 8.00.
